Test results as given in patent US20240016774A1, “IMPLANTABLE DEPOTS FOR LOCALIZED, SUSTAINED, CONTROLLED RELEASE OF THERAPEUTIC AGENTS TO TREAT CANCER AND RELATED CONDITIONS” (Foundry Therapeutics, Inc., priority 2020, published 2024).

Test: in vitro drug release (elution) in PBS at 37° C.
Format: physicochemical
Conditions: docetaxel powder, milled vs unmilled
Protocol: Using docetaxel as the example drug, and 10:10:80 PEG10K:PLGA5050:Doce as the baseline formulation for comparison, we show below various novel formulations that can increase in vitro drug elution rates as tested in PBS at 37° C. 10:10:80 PEG10K:PLGA5050:Doce was the formulation that was evaluated in our preclinical studies. Average cumulative drug release % values with linear trend line from the first 14 days were plotted, as shown in FIG. 114. • Baseline=PEG:PLGA:Doce 10:10:80 Rod • Fast=PEG:PLGA:Doce 50:10:40 Rod • Faster=PEG:Doce 60:40 Rod • Raw docetaxel powder, milled or unmilled • Fastest=PEG:Doce 1:1 Particles
The mechanism of how each of these novel formulations can achieve increased in vitro drug release rate compared to the baseline 10:10:80 PEG10K:PLGA5050:Doce formulation is explained below. We have developed multiple formulations with tunable drug release rates that takes advantage of either decreasing hydrophobicity (by increasing PEG content) or introducing predominantly molecularly dispersed drug into the polymer matrix.

## CC(=O)O[C@@]12CO[C@@H]1C[C@H](O)[C@@]1(C)C(=O)[C@H](O)C3=C(C)[C@@H](OC(=O)[C@H](O)[C@@H](NC(=O)OC(C)(C)C)c4ccccc4)C[C@@](O)([C@@H](OC(=O)c4ccccc4)[C@H]21)C3(C)C [docetaxel]
  dissolution rate after milling: does not significantly increase dissolution rate even after milling
